Measured values: patent publication US9902701B2, “Pyridazones and triazinones for treatment and prophylaxis of hepatitis B virus infection” (priority 2014, dated 2018)
pIC50: −log10 of the molar value.

Test system: HBsAg
Test: HBsAg assay: chemiluminescence immunoassay (CLIA) of secreted HBsAg in supernatant of HepG2.2.15 cells
Type: cell-based, HBV
Settings: Hepatitis B virus
Protocol: HepG2.2.15 cells (Acs et al. Proc Natl Acad Sci USA, 84, (1987), 4641-4), a constitutively HBV-expressing cell line were cultured in DMEM+Glutamax-I medium (Invitrogen, Carlsbad, Calif., USA), supplemented with 10% fetal bovine serum (Invitrogen) and G418 (Invitrogen) at a final concentration of 200 mg/L and maintained in 5% CO2 at 37° C.
HepG2.2.15 cells were seeded in duplicate into white, 96-well plates at 1.5×10^4 cells/well. The cells were treated with a three-fold serial dilution series of the compounds in DMSO. The final DMSO concentration in all wells was 1% and DMSO was used as no drug control.
The HBsAg chemiluminescence immunoassay (CLIA) kit (Autobio Diagnostics Co., Zhengzhou, China, Catalog number: CL0310-2) was used to measure the levels of secreted HBV antigens semi-quantitatively. For the detection 50 μL/well culture supernatant was used and HBsAg was quantified using HBsAg chemiluminescence immunoassay (CLIA) kit (Autobio Diagnostics Co., Zhengzhou, China, Catalog number: CL0310-2), 50 μL of the supernatant was transferred to the CLIA assay plate and 50 μL of enzyme conjugate reagent was added into each well. The plates were sealed and gently agitated for 1 hour at room temperature. The supernatant-enzyme-mixture was discarded and wells were washed 6 times with 300 μL of PBS. The residual liquid was removed by plating the CLIA plate […] on absorbent tissue paper. 25 μL of substrates A and B were added to each well. Luminance was measured using a luminometer (Mithras LB 940 Multimode Microplate Reader) after 10 minutes incubation. Dose-response curves were generated and the IC50 value was extrapolated by using the E-WorkBook Suite (ID Business Solutions Ltd., Guildford, UK). The IC50 was defined as the compound concentration (or conditioned media log dilution) at which HBsAg secretion was reduced by 50% compared to the no drug control.

Cc1cc(Cl)ccc1C1=NN(CC(=O)N(C)c2cccc(F)c2)C(=O)CC1 [Example 1-28, 2-[3-(4-Chloro-2-methyl-phenyl)-6-oxo-4,5-dihydropyridazin-1-yl]-N-(3-fluorophenyl)-N-methyl-acetamide]
pIC50: 5.34

Cc1cc(Cl)ccc1C1=NN(CC(=O)N(C)c2cccc(C(F)(F)F)c2)C(=O)CC1 [Example 1-29, 2-[3-(4-Chloro-2-methylphenyl)-6-oxo-4,5-dihydropyridazin-1-yl]-N-methyl-N-[3-(trifluoromethyl)phenyl]acetamide]
pIC50: 6.32

CN(C(=O)CN1N=C(c2ccc(F)cc2F)CCC1=O)c1ccc(C(F)(F)F)cc1 [Example 1-30, 2-[3-(2,4-Difluorophenyl)-6-oxo-4,5-dihydropyridazin-1-yl]-N-methyl-N-[4-(trifluoromethyl)phenyl]acetamide]
pIC50: 6.40

CN(C(=O)CN1N=C(c2ccc(F)cc2F)CCC1=O)c1cccc(C(F)(F)F)c1 [Example 1-31, 2-[3-(2,4-Difluorophenyl)-6-oxo-4,5-dihydropyridazin-1-yl]-N-methyl-N-[3-(trifluoromethyl)phenyl]acetamide]
pIC50: 6.08

CN(C(=O)CN1N=C(c2ccc(F)cc2F)CCC1=O)c1ccc(F)c(C(F)(F)F)c1 [Example 1-32, 2-[3-(2,4-Difluorophenyl)-6-oxo-4,5-dihydropyridazin-1-yl]-N-[4-fluoro-3-(trifluoromethyl)phenyl]-N-methyl-acetamide]
pIC50: 6.29

CN(C(=O)CN1N=C(c2ccc(F)cc2F)CCC1=O)c1ccc(Cl)cc1 [Example 1-33, N-(4-Chlorophenyl)-2-[3-(2,4-difluorophenyl)-6-oxo-4,5-dihydropyridazin-1-yl]-N-methyl-acetamide]
pIC50: 6.07

CN(C(=O)CN1N=C(c2ccc(F)cc2F)CCC1=O)c1cccc(F)c1 [Example 1-34, 2-[3-(2,4-Difluorophenyl)-6-oxo-4,5-dihydropyridazin-1-yl]-N-(3-fluorophenyl)-N-methyl-acetamide]
pIC50: 5.90

Cc1cc(C2=NN(CC(=O)N(C)c3cccc(C(F)(F)F)c3)C(=O)CC2)ccc1F [Example 1-35, 2-[3-(4-Fluoro-3-methyl-phenyl)-6-oxo-4,5-dihydropyridazin-1-yl]-N-methyl-N-[3-(trifluoromethyl)phenyl]acetamide]
pIC50: 5.33

Cc1cc(C2=NN(CC(=O)N(C)c3ccc(C(F)(F)F)cc3)C(=O)CC2)ccc1F [Example 1-36, 2-[3-(4-Fluoro-3-methyl-phenyl)-6-oxo-4,5-dihydropyridazin-1-yl]-N-methyl-N-[4-(trifluoromethyl)phenyl]acetamide]
pIC50: 5.51

Cc1cc(C2=NN(CC(=O)N(C)c3ccc(F)c(C(F)(F)F)c3)C(=O)CC2)ccc1F [Example 1-37, 2-[3-(4-Fluoro-3-methyl-phenyl)-6-oxo-4,5-dihydropyridazin-1-yl]-N-[4-fluoro-3-(trifluoromethyl)phenyl]-N-methyl-acetamide]
pIC50: 5.50

Cc1cc(C2=NN(CC(=O)N(C)c3ccc(C(F)(F)F)c(F)c3)C(=O)CC2)ccc1F [Example 1-38, 2-[3-(4-Fluoro-3-methyl-phenyl)-6-oxo-4,5-dihydropyridazin-1-yl]-N-[3-fluoro-4-(trifluoromethyl)phenyl]-N-methyl-acetamide]
pIC50: 5.63

CN(C(=O)CN1N=C(c2ccc(C(F)(F)F)cc2)CCC1=O)c1cccc(Cl)c1 [Example 1-39, N-(3-Chlorophenyl)-N-methyl-2-[6-oxo-3-[4-(trifluoromethyl)phenyl]-4,5-dihydropyridazin-1-yl]acetamide]
pIC50: 6.43

CN(C(=O)CN1N=C(c2ccc(C(F)(F)F)cc2)CCC1=O)c1ccc(C(F)(F)F)cc1 [Example 1-40, N-Methyl-2-[6-oxo-3-[4-(trifluoromethyl)phenyl]-4,5-dihydropyridazin-1-yl]-N-[4-(trifluoromethyl)phenyl]acetamide]
pIC50: 6.42

CN(C(=O)CN1N=C(c2ccc(C(F)(F)F)cc2)CCC1=O)c1cccc(C(F)(F)F)c1 [Example 1-41, N-Methyl-2-[6-oxo-3-[4-(trifluoromethyl)phenyl]-4,5-dihydropyridazin-1-yl]-N-[3-(trifluoromethyl)phenyl]acetamide]
pIC50: 6.60

CN(C(=O)CN1N=C(c2ccc(C(F)(F)F)cc2)CCC1=O)c1cccc(F)c1 [Example 1-42, N-(3-Fluorophenyl)-N-methyl-2-[6-oxo-3-[4-(trifluoromethyl)phenyl]-4,5-dihydropyridazin-1-yl]acetamide]
pIC50: 6.28

CN(C(=O)CN1N=C(c2ccc(C(F)(F)F)cc2)CCC1=O)c1ccc(F)cc1 [Example 1-43, N-(4-Fluorophenyl)-N-methyl-2-[6-oxo-3-[4-(trifluoromethyl)phenyl]-4,5-dihydropyridazin-1-yl]acetamide]
pIC50: 5.61

CN(C(=O)CN1N=C(c2ccc(C(F)(F)F)cc2)CCC1=O)c1ccc(Cl)cc1 [Example 1-44, N-(4-Chlorophenyl)-N-methyl-2-[6-oxo-3-[4-(trifluoromethyl)phenyl]-4,5-dihydropyridazin-1-yl]acetamide]
pIC50: 6.02

CN(C(=O)CN1N=C(c2ccc(Cl)c(Cl)c2)CCC1=O)c1ccc(C(F)(F)F)cc1 [Example 1-45, 2-[3-(3,4-Dichlorophenyl)-6-oxo-4,5-dihydropyridazin-1-yl]-N-methyl-N-[4-(trifluoromethyl)phenyl]acetamide]
pIC50: 6.64

CN(C(=O)CN1N=C(c2ccc(Cl)c(Cl)c2)CCC1=O)c1ccc(Cl)cc1 [Example 1-46, N-(4-Chlorophenyl)-2-[3-(3,4-dichlorophenyl)-6-oxo-4,5-dihydropyridazin-1-yl]-N-methyl-acetamide]
pIC50: 6.38

CN(C(=O)CN1N=C(c2ccc(F)cc2)CCC1=O)c1ccccc1 [Example 1-47, 2-[3-(4-Fluorophenyl)-6-oxo-4,5-dihydropyridazin-1-yl]-N-methyl-N-phenyl-acetamide]
pIC50: 5.05

CN(C(=O)CN1N=C(c2ccc(F)cc2)CCC1=O)c1ccc(Cl)cc1 [Example 1-48, N-(4-Chlorophenyl)-2-[3-(4-fluorophenyl)-6-oxo-4,5-dihydropyridazin-1-yl]-N-methyl-acetamide]
pIC50: 5.73

CN(C(=O)CN1N=C(c2ccc(Br)cc2)CCC1=O)c1ccccc1 [Example 1-49, 2-[3-(4-Bromophenyl)-6-oxo-4,5-dihydropyridazin-1-yl]-N-methyl-N-phenyl-acetamide]
pIC50: 5.41

CN(C(=O)CN1N=C(c2ccc(Br)cc2)CCC1=O)c1ccc(Cl)cc1 [Example 1-50, 2-[3-(4-Bromophenyl)-6-oxo-4,5-dihydropyridazin-1-yl]-N-(4-chlorophenyl)-N-methyl-acetamide]
pIC50: 5.91

CN(C(=O)CN1N=C(c2ccc(Br)cc2)CCC1=O)c1ccc(C(F)(F)F)cc1 [Example 1-51, 2-[3-(4-Bromophenyl)-6-oxo-4,5-dihydropyridazin-1-yl]-N-methyl-N-[4-(trifluoromethyl)phenyl]acetamide]
pIC50: 5.94

CN(C(=O)CN1N=C(c2ccc(F)c(F)c2)CCC1=O)c1cccc(C(F)(F)F)c1 [Example 1-52, 2-[3-(3,4-Difluorophenyl)-6-oxo-4,5-dihydropyridazin-1-yl]-N-methyl-N-[3-(trifluoromethyl)phenyl]acetamide]
pIC50: 6.33

CN(C(=O)CN1N=C(c2ccc(F)c(F)c2)CCC1=O)c1ccc(C(F)(F)F)cc1 [Example 1-53, 2-[3-(3,4-Difluorophenyl)-6-oxo-4,5-dihydropyridazin-1-yl]-N-methyl-N-[4-(trifluoromethyl)phenyl]acetamide]
pIC50: 6.07

CN(C(=O)CN1N=C(c2ccc(Cl)cc2Cl)CCC1=O)c1ccc(Cl)cc1 [Example 1-54, N-(4-Chlorophenyl)-2-[3-(2,4-dichlorophenyl)-6-oxo-4,5-dihydropyridazin-1-yl]-N-methyl-acetamide]
pIC50: 5.71

CN(C(=O)CN1N=C(c2ccc(C#N)cc2)CCC1=O)c1ccc(Cl)cc1 [Example 1-55, N-(4-Chlorophenyl)-2-[3-(4-cyanophenyl)-6-oxo-4,5-dihydropyridazin-1-yl]-N-methyl-acetamide]
pIC50: 5.42

Cc1ccc(C2=NN(CC(=O)N(C)c3ccc(Cl)cc3)C(=O)CC2)cc1 [Example 1-56, N-(4-Chlorophenyl)-N-methyl-2-[6-oxo-3-(p-tolyl)-4,5-dihydropyridazin-1-yl]acetamide]
pIC50: 5.02

CN(C(=O)CN1N=C(c2cccc(Cl)c2)CCC1=O)c1ccc(Cl)cc1 [Example 1-57, N-(4-Chlorophenyl)-2-[3-(3-chlorophenyl)-6-oxo-4,5-dihydropyridazin-1-yl]-N-methyl-acetamide]
pIC50: 5.52

CN(C(=O)Cn1nc(-c2ccc(Cl)cc2)ccc1=O)c1ccc(C(F)(F)F)cc1 [Example 2-1, 2-[3-(4-Chlorophenyl)-6-oxo-pyridazin-1-yl]-N-methyl-N-[4-(trifluoromethyl)phenyl]acetamide]
pIC50: 6.05

CN(C(=O)Cn1nc(-c2ccc(Cl)c(F)c2)ccc1=O)c1ccc(C(F)(F)F)cc1 [Example 2-2, 2-[3-(4-Chloro-3-fluorophenyl)-6-oxo-pyridazin-1-yl]-N-methyl-N-[4-(trifluoromethyl)phenyl]acetamide]
pIC50: 6.28
